Earlier results as cited in patent US11339174B2, “γ-spiroketal-γ-lactones and pharmaceutical composition containing same and process for preparation thereof” (Council of Scientific and Industrial Research, priority 2017, dated 2022).
In brackets after ≈: the same amount, converted by molar mass.

Key:
HL-60 = settings: anticancer

Molecule | activity against Staphylococcus aureus (Staphylococcus aureus) | activity against Bacillus subtilis (Bacillus subtilis) | IC50 against HL-60 (HL-60) [mg/L]
massarinoline A | active | active | –
C[C@H]1O[C@@H]2C[C@]3(C=CC(=O)O3)O[C@@H]2[C@H]1O [pyrenolide D] | – | – | 4 (≈ 18.9 µM)
